Measurements taken from patent publication US20070219208A1, “Methods for Treating Cancer” (priority 2006, published 2007).
“Also recorded” adds a separate entry of the source.

Key:
[1] = test system: MCF-7 breast cancer cells; assay: MTT reduction cytotoxicity assay in MCF-7 cells; conditions: 48 h; for MCF-7 cell death (MTT assay) by isoprenylation inhibitors: 10-20 μM
Description: MTT Reduction Cytotoxicity Assay:
MTT is taken up by cells and is reduced to a colored formazon product that can be detected by spectrophotometry (max=562 nm). Reduction of MTT is dependent upon the mitochondrial respiratory function, and thus measures the relative number of viable cells in the culture. After the treatment was completed, MCF-7 cells were washed twice with DPBS and taken in a ml of MEM without FBS and incubated with 5 mg/ml MTT solution for 1 h at 37° C. Medium was removed and cells were solubilized in DMSO. The absorption was measured at 562 nm with reference at 630 nm.
We assessed the effectiveness of simvastatin and fluvastatin to induce cytotoxicity in MCF-7 cells. MCF-7 breast cancer cells were treated with fluvastatin or simvastatin at different concentrations (0.5-20 μM) for 24-48 h. The changes in the number of viable cells were determined using the MTT assay that monitors the intracellular conversion of MTT to formazon spectrophotometrically max=562 nm).

[2] = test system: MCF-7 cells; assay: 3H-thymidine uptake (DNA synthesis / cell proliferation); type: cell-based; conditions: 10-20 μM
Description: Thymidine Uptake Studies:
DNA synthesis was measured by monitoring the uptake of tritiated thymidine, [^3H]TdR (Perkin-Elmer, Boston, Mass.). Cells (5×10^5/ml) were cultured with different concentrations of simvastatin or fluvastatin (0-10 μM) in the presence or absence of mevalonate (20 μM), 1400 W, or sepiapterin. Cells were pulse-chased with [^3H]TdR [0.5 μCi (0.185 MBq)/well during the last 3 h of a 24 h culture, harvested onto glass filters with an automatic cell harvester (Cambridge Technology, Cambridge, Mass.), and counted using the LKB Betaplate scintillation counter (Wallac, Gaithersburg, Md.). All experiments were performed in triplicate and repeated three times.

[3] = test system: iNOS in MCF-7 cells; assay: iNOS mRNA (RT-PCR) and protein (Western) levels; type: cell-based; conditions: MCF-7 cells, 10-20 μM, 40 h, Western analysis
Description: After treatment with statins, cells were washed with ice-cold DPBS and resuspended in 150 μl of radioimmune precipitation assay buffer (20 mM Tris-HCl, pH 7.4, 2.5 mM EDTA, 1% Triton X-100, 1% sodium deoxycholate, 1% SDS, 100 mM NaCl, 100 mM sodium fluoride) containing 1 mM sodium vanadate, 10 μg/ml aprotinin, 10 μg/ml leupeptin, and 10 μg/ml pepstatin inhibitors. Cells were homogenized by passing the suspension through a 25-gauge needle (20 strokes). The lysate was centrifuged at 750×g for 10 min at 4° C. to pellet out the nuclei. The remaining supernatant was centrifuged for 30 min at 12,000×g. Protein was determined using the Lowry method and 50 μg of the lysate was used for the Western blot analysis. Proteins were resolved using the SDS-polyacrylamide gels and blotted onto nitrocellulose membranes. Membranes were washed with TBS (140 mM NaCl, 50 mM Tris-HCl, pH 7.2) containing 0.1% Tween 20 (TBST) and 5% skim milk to block the non-specific protein binding. Membranes were incubated with 1 μg/ml rabbit anti-iNOS polyclonal antibody (Abeam, Cambridge, Mass.), mouse anti-cyclin D1 antibody, mouse anti-cyclin E antibody (BD Biosciences, San Jose, Calif.) or rabbit anti-p27 antibody (Chemicon International, Temecula, Calif.) in TBST for overnight at 4° C., washed 5 times with TBST, and then incubated with goat anti-rabbit or rabbit anti-mouse IgG-horseradish peroxidase-conjugated secondary antibody (1:5,000) for 1.5 h at room temperature. The band was detected using the ECL method (Amersham Biosciences).
Following the treatments, medium was aspirated and 1 ml of TRIzol reagent (Invitrogen) was added and total RNA was extracted using the manufacturer's protocol. Five μg of RNA was used for the first strand cDNA synthesis using a first strand cDNA synthesis kit (Amersham Biosciences). […]

[4] = test system: MCF-7 cells; assay: Soft agar assay for colony formation (anchorage-independent growth); type: cell-based; conditions: for visible colony formation in soft agar: MCF-7 cells, 10 μM, treated 40 h, colonies after 21 days
Description: Soft Agar Assay for Colony Formation:
After cells were treated with various conditions, they were seeded in six-well plates. The plates were first covered with phenol red-free MEM containing 0.6% agar and 10% FBS. The middle layer contained cells (5×10^3) in phenol red-free MEM with 0.35% agar and 10% FBS. The top layer, consisting of the medium, was added to prevent drying of the agar in the plates. The plates were incubated for 21 days, after which the plates were stained in 0.5 ml of 0.005% crystal violet for 1 h and the cultures were inspected and photographed. The colony efficiency (CE) was determined by a count of the number of colonies greater than […] in diameter, which was calculated as the average of colonies counted at 50× magnification in five individual fields manually (Liu S, et al. Oncogene, 23:1256-62, 2004).
The long-term effects of statins and the inhibitors on the proliferation and survival of MCF-7 cells were determined using clonogenic assays (Ramanathan B, et al. Cancer Res, 65:8455-60, 2005). The extent of malignancy of cells corresponds to the attainment of anchorage-independent growth (Liu S, et al. Oncogene, 23:1256-62, 2004). MCF-7 cells were treated with simvastatin or fluvastatin in the presence or absence of either 1400 W or mevalonate or sepiapterin. In separate experiments, cells were treated with either GGTI-298 or FTI-277. At the end of the treatments, approximately 5×10^3 cells were seeded onto a soft agar to determine their clonogenic efficiency after 21 days. […] In the presence of either 1400 W or mevalonate, the colony formation was restored in statin-treated cells (FIG. 6B).

[5] = test system: NO2-/NO3- levels in MCF-7 cells; assay: Nitrite and nitrate measurements by chemiluminescence (NO analyzer); type: cell-based; conditions: for effect on statin-induced NO / NO2-/NO3- levels: with simvastatin or fluvastatin (10 μM), 40 h, mevalonate 20 μM, 1400 W 10 μM, sepiapterin 50 μM, compared to statin alone
Description: Briefly, following treatments, cells were washed three times with DPBS after aspirating the medium. To this, 1 ml of Hanks' balanced salt mixture containing 25 μM L-arginine was added and incubated for 30 min at 37° C. The medium was collected and centrifuged for 5 min at 5000 rpm, and 50 μl of the clear supernatant was used for nitrate and nitrite analysis. Each sample was analyzed in triplicate.

[6] = test system: MCF-7 cells; assay: Apoptosis by TUNEL assay; type: cell-based; conditions: with simvastatin or fluvastatin 5-10 μM, 48 h, 1400 W 10 μM, sepiapterin 50 μM, mevalonate 20 μM
Description: Measurement of Apoptosis by TUNEL Assay:
The terminal deoxynucleotidyl transferase-mediated nick-end labeling (TUNEL) assay was used for microscopic detection of apoptosis (Kotamraju S, et al. J Biol Chem, 277:17179-87, 2002). This assay is based on labeling of 3′ free hydroxyl ends of the fragmented DNA with fluorescein-dUTP catalyzed by terminal deoxynucleotidyl transferase. Procedures were followed according to a commercially available kit (ApoAlert) from Clontech. […] The apoptotic cells were detected by fluorescence microscopy equipped with rhodamine and FITC filters. The quantification of apoptosis was performed using the Metamorph image analysis package.
Under these conditions, NO2^−/NO3^− levels were decreased (FIG. 4B). […] Further verification that iNOS is involved in […] NO was obtained from inhibition of geranylgeranylation and farnesylation. […] In contrast, FTI-277 (farnesylation inhibitor) and sepiapterin had no effect on NO2^−/NO3^− levels (FIG. 4C). […] In the TUNEL assay, cells were treated with simvastatin or fluvastatin (5-10 μM) for 48 h in the presence or absence of 1400 W (10 μM), sepiapterin (50 μM) or mevalonate (20 μM) and stained for TUNEL-positive cells as an index of DNA fragmentation monitored by fluorescence microscopy (original magnification, ×100). Photographs were taken for the overlaid images of propidium iodide-and FITC-stained cells (TUNEL-positive cells). Yellow and red denote apoptotic and nonapoptotic cells, respectively. We observed that the TUNEL positive staining was enhanced in statin-treated MCF-7 cells. […] Pretreatment with 1400 W or mevalonate caused a decrease in the TUNEL positive cells.

[7] = test system: MCF-7 cells; assay: Cell cycle analysis by flow cytometry; type: cell-based; conditions: 1400 W 10 μM, mevalonate 20 μM
Description: For DNA content analysis, harvested cells were centrifuged at 1,000×g for 5 min, fixed by the gradual addition of ice-cold 70% ethanol, and washed with PBS. Cells were then treated with RNase (10 μg/mL) for 30 min at 37° C., washed once with PBS, and resuspended and stained in 1 mL of 69 μmol/L propidium iodide in 38 mmol/L sodium citrate for 30 min at room temperature. The cell cycle phase distribution was determined by analytic DNA flow cytometry as described in (Vindelov L, et al. Methods Cell Biol, 33:127-37, 1990). The percentage of cells in each phase of the cell cycle was analyzed using a Modfit software (Verity Software House, Topsham, Me.).
As NO has previously been reported to exert tumor cell cycle alterations (Pervin S, et al. Natl Acad Sci USA 98:3583-3588, 2001), we investigated the cytostatic effect of statins in MCF-7 cells. MCF-7 cells were treated with simvastatin and fluvastatin for […] in the presence and absence of 1400 W (10 μM) and mevalonate (20 μM). Cell cycle progression was examined using FACScan flow cytometry analysis. […] As cell cycle progression from […] involves activations of the cell regulatory proteins, cyclins D and E, we investigated the effects of statins and iNOS inhibitor on the cell cycle proteins. […]

[8] = test system: cyclin D1, cyclin E and p27 in MCF-7 cells; assay: Cell cycle protein levels by Western analysis (cyclin D1, cyclin E, p27); type: cell-based; conditions: 1400 W 10 μM or mevalonate 20 μM
Description: A (Table): The cell cycle distribution of MCF-7 cells treated with either simvastatin or fluvastatin (5-10 μM) for 40 h in the presence or 1400 W (10 μM) or mevalonate (20 μM). The cell sorting was performed by flow cytometry as described in “Materials and Methods.” B: Cells were treated with simvastatin or fluvastatin (10 μM) in the presence or absence of 1400 W (10 μM) or mevalonate (20 μM) for 40 h and cyclins D1 and E protein levels were measured by the Western analysis using the corresponding polyclonal or monoclonal antibodies. Data are representative of three separate experiments.
After treatment with statins, cells were washed with ice-cold DPBS and resuspended in 150 μl of radioimmune precipitation assay buffer (20 mM Tris-HCl, pH 7.4, 2.5 mM EDTA, 1% Triton X-100, 1% sodium deoxycholate, 1% SDS, 100 mM NaCl, 100 mM sodium fluoride) containing 1 mM sodium vanadate, 10 μg/ml aprotinin, 10 μg/ml leupeptin, and 10 μg/ml pepstatin inhibitors. Cells were homogenized by passing the suspension through a 25-gauge needle (20 strokes). The lysate was centrifuged at 750×g for 10 min at 4° C. to pellet out the nuclei. The remaining supernatant was centrifuged for 30 min at 12,000×g. Protein was determined using the Lowry method and 50 μg of the lysate was used for the Western blot analysis. […] The band was detected using the ECL method (Amersham Biosciences).

`CC(C)=CCC/C(C)=C/CC/C(C)=C/CC/C=C(\C)CC/C=C(\C)CCC=C(C)C` [squalene] was tested, and the “effect on statin-induced MCF-7 cell cytotoxicity (MTT assay)” value ([1]; pretreatment before simvastatin or fluvastatin (10 μM), mevalonate 20 μM, 1400 W 10 μM) was “did not prevent”.
N-nitroso-fluvastatin [NO-fluvastatin] was tested, and the “potency in causing MCF-7 cell death compared to fluvastatin alone (MTT assay)” value ([1]; 0-1 μM) was “more potent”.
For `COC(=O)[C@H](CC(C)C)NC(=O)c1ccc(NC[C@@H](N)CS)cc1-c1cccc2ccccc12` [GGTI-298, N-4-[2(R)-amino-3-mercaptopropyl]amino-2-naphthylbenzoyl-(L)-leucine methyl ester], the “MCF-7 cell death (MTT assay) by isoprenylation inhibitors” value [1] was “induced MCF-7 cell death”, the “loss of MCF-7 cell proliferation (3H-thymidine uptake) by isoprenylation inhibitors” value [2] was “loss of cell proliferation” and the “iNOS protein levels by isoprenylation inhibitors” value [3] was “dose-dependently induced”. For the same molecule, the “visible colony formation in soft agar” value [4] was “drastically lowered”.
For `COC(=O)[C@H](CCSC)NC(=O)c1ccc(NC[C@@H](N)CS)cc1-c1ccccc1` [FTI-277, methyl {N-[2-phenyl-4-N[2(R)-amino-3-mecaptopropylamino]benzoyl]}-methionate], the “MCF-7 cell death (MTT assay) by isoprenylation inhibitors” value [1] was “not”, the “loss of MCF-7 cell proliferation (3H-thymidine uptake) by isoprenylation inhibitors” value [2] was “not” and the “iNOS protein levels by isoprenylation inhibitors” value [3] was “not”. The “visible colony formation in soft agar” value [4] was “not”.
For `C[C@H](O)C(=O)C1=Nc2c(nc(N)[nH]c2=O)NC1` [sepiapterin], the “NO2-/NO3- levels, sepiapterin with FTI-277” value ([5]; MCF-7 cells) was “no effect”, the “NO2-/NO3- levels, sepiapterin with GGTI-298 compared to GGTI-298 alone” value ([5]; MCF-7 cells) was “significantly increased” and the “NO2-/NO3- levels, sepiapterin alone” value ([5]; in the absence of statin) was “did not increase”. The “effect on statin-induced NO / NO2-/NO3- levels” value [5] was “significantly increased”, the “effect on statin-induced TUNEL-positive cells (proapoptotic effect)” value (“effect … (proapoptotic effect)” for short) [6] was “exacerbated” and the “effect … (proapoptotic effect)” value ([6]; listed as Sepiapterin) was “further augmented”. For the same molecule, the “colony growth, sepiapterin supplementation with simvastatin or fluvastatin” value ([4]; lower concentration of simvastatin or fluvastatin (5 μM), sepiapterin 50 μM) was “completely inhibited”.
For `CC(=N)NCc1cccc(CN)c1` [1400 W, N-(3-aminomethyl)benzylacetamidine], the “effect on statin-induced NO / NO2-/NO3- levels” value [5] was “inhibited; also recorded: decreased”, the “effect … (proapoptotic effect)” value [6] was “decrease” and the “effect on statin-induced cell cycle alterations” value [7] was “partially reversed”. The “effect on statin-induced decrease of cyclin D1 and cyclin E” value [8] was “restored in part” and the “colony formation in statin-treated cells in the presence of modulator” value ([4]; 1400 W 10 μM or mevalonate 20 μM with statin 10 μM) was “restored”.
